Legend:
[1] = in vivo; cited from earlier work
BDNF [2] = assay: BDNF expression in primary hippocampal cultures (RT-PCR); type: cell-based, rat; details: primary hippocampal neurons
Experimental: Sprague-Dawley rats (P0) were decapitated and hippocampi were dissected bilaterally. Cells were dissociated by enzyme digestion with papain followed by brief mechanical trituration and plated on poly-D-lysine treated flasks. Cells were plated (1×10^6 cells/chamber) and maintained in Neurobasal media supplemented with B27, penicillin, streptomycin and Glutamax-1 and maintained in culture for 3 weeks. Following treatment, total RNAs were isolated using Trizol reagent and reverse transcribed (RT) using the Reverse Transcription System kit. The RT products were used for analysis of the expression of BDNF and the control gene […] (GPDH) by polymerase chain reaction (PCR) described in (Yaka et al. (2003) J. Biol. Chem. 278: 9630-9638). The PCR products were photographed by Eagle Eye II (Stratagene), and quantified by using NIH Image 1.61.

[3] = tested on: tyrosine hydroxylase (TH); assay: Tyrosine hydroxylase (TH) protein levels in SHSY5Y cells; type: cell-based, human
Experimental: Panel A: SHSY5Y cells were treated with different concentrations (0, 10, 25, and 100 mM) of ethanol for 24 hours. TH protein levels and control Actin levels were determined by Western blot analysis. Histogram depicts the mean ratio (TI/actin)±SD of 3 experiments. Panel B: Cells were treated with media (control), 100 ng/ml of GDNF for 12 h (lane 1), 100 mM ethanol for 24 hours (lane 2), or 100 mM ethanol for 24 hours to which 100 ng/ml GDNF was added for the last 12 hours (lane 3). The cells were lysed for Western blot analysis. Histogram depicts the mean ratio (TH/actin)±SD of 3 experiments. […] Histogram depicts the mean ratio (TH/actin)±SD of 3 experiments.

NGF = details: C57 mice, voluntary ethanol consumption, striatum and PFC
Experimental: Adult male C57B1/6 mice were decapitated 3 hours after the start of the dark cycle, for mice with access to ethanol, or 6 hours following i.p. injection of vehicle or Tat-RACK1 (4 mg/kg), for naïve animals. Brains were rapidly removed and bilateral tissue punches of the striatum and PFC were frozen in liquid nitrogen. BDNF, NGF and GPDH expression were analyzed by RT-PCR as described above for hippocampal cultures. The primers for NGF were designed as follows: […]

[4] = tested on: primary hippocampal neurons; assay: RACK1 / Tat-RACK1 nuclear localization in primary hippocampal neurons (confocal microscopy); type: cell-based, rat; details: 100 mM ethanol 30 minutes
Experimental: Primary hippocampal neurons were washed in cold PBS containing 0.1% Triton X-100, fixed in cold methanol and blocked in PBS containing 0.1% Triton X-100 and 3% Normal Goat Serum. lrmunostaining was performed with monoclonal monoclonal IgG HA antibodies (1:150). Staining was detected with anti FITC antibodies (1:500). Nuclei were detected with the nuclear marker TOTO-3 (1: 10000). Slides were viewed with a laser scanning confocal microscope (Zeiss LSM 510 Meta). Z-field images were processed by obtaining the middle Z field sections using LSM 5 Image Browse (Scion Corporation) and Adobe Photoshop (Adobe Systems Inc.). For immunocytochemistry used to detect the presence of Tat-RACK1 in the brain, C57 mice were injected i.p. with vehicle or 4 mg/kg Tat-RACK1. Animals were decapitated 4 hours post injection and brains were quickly removed and frozen at −50° C. in isopentane. Slide-mounted saggital striatal sections ([…]) were immersed for 10 minutes in cold (−20° C.) mixture of 75% methanol and 25% acetone, re-hydrated, rinsed in PBS and incubated in 10% normal donkey serum. Rat monoclonal anti-HA antibody (1:2,000 in PBS) was applied overnight in a humid chamber. […]

BDNF [5] = assay: BDNF expression in vivo (RT-PCR of tissue punches); parameters: species or system mouse; details: C57 mice, voluntary consumption of 10% ethanol for 2 weeks
Description: The primers for NGF were designed as follows: […]

ERK1/2 = ERK1/2 phosphorylation in SHSY5Y cells; type: cell-based, human; details: 10 μM ibogaine 3 hours, U0126 20 μM, PD98059 40 μM 30 minutes or PI-PLC 0.3 unit/ml 1 h pre-incubation
Experimental: ERK2 and pERK1/2 were detected by Western blot analysis with anti-ERK2 and pERK1/2 antibodies respectively. Line-graph depicts the mean ratio (pERK2/ERK2)±SD of 3 experiments. […] Panel C: Cells were pre-incubated with 0.3 unit/ml PI-PLC for 1 h (lane 3).

Long Evans rats = assay: Ethanol self-administration in rats after intracerebroventricular (i.c.v.) microinjections; type: in vivo, rat; details: i.c.v. microinjection, intake 24 hours after treatment
Experimental: Adult male Long Evans rats were trained in the two-bottle choice ethanol self-administration procedure as described above for mice. Three weeks after ethanol exposure commenced, a 26 gauge cannula was placed into the right lateral ventricle (stereotaxic coordinates AP: −0.8, ML: −1.4, DV: −3.6, relative to bregma) of anesthetized subjects. Three weeks later, subjects received weekly i.c.v. microinjections of vehicle, Tat-RACK1, or the Tat-peptide (injection volume […]) at approximately 15:30, or 3.5 hours before lights out. Intake was measured 24 hours after treatment. All subjects received vehicle and Tat-RACK1 injections; a subset of subjects was also injected with the Tat-peptide. Cannula locations were verified histologically at the conclusion of the experiment.

BDNF [6] = assay: BDNF secretion from dissociated hippocampal neurons (ELISA); type: cell-based, rat; details: 1 μM, 6 hours
Experimental: BDNF or NGF secretion was measured in media from dissociated hippocampal neurons or from striatal slices using Emax ImmunoAssay according to (Balkowiec and Katz (2000) J. Neurosci., 20: 7417-7423)) and (Heaton et al. (2003) Brain Res. Dev. Brain Res. 140: 237-252), respectively. BDNF or NGF concentrations were interpolated from the standard curves (linear range of 7.8-500 pg/ml).

Trk receptor = biological target: T1, Trk receptor (Rattus norvegicus, UniProt Q63604); assay: Trk phosphorylation in striatal slices (Western blot); type: cell-based; details: 1 μM Tat-RACK1 together with 200 nM K252a, 4 hours
T1 construct: from tissue; host or cells: striatal slices (dorsal striatum and NAc) of Sprague-Dawley rats
T1 sequence (Q63604 32-821): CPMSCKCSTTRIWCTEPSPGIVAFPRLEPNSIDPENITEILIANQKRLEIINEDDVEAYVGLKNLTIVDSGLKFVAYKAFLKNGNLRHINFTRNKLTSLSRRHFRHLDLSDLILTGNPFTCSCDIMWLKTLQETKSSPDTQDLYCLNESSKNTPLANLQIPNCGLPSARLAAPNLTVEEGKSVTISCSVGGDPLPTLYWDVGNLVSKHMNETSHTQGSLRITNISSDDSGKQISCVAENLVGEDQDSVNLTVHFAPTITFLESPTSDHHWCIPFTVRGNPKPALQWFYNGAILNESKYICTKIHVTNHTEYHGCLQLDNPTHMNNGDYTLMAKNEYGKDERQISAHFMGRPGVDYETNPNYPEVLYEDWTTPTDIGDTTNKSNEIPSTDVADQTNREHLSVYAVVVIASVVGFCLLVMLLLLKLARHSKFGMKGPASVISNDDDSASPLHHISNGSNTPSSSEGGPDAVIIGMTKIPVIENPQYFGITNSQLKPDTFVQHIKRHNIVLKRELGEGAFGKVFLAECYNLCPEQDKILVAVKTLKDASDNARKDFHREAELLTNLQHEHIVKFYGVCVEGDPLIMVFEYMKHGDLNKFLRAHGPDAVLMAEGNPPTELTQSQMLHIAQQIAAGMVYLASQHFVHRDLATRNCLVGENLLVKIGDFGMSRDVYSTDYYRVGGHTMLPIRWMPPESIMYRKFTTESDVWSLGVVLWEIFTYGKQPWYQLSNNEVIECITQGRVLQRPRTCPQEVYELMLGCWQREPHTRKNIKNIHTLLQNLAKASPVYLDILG
Experimental: Coronal striatal slices ([…]) were prepared from 3-4 week old male Sprague-Dawley rats. Slices were maintained for at least 1 hour in artificial cerebrospinal fluid (αCSF) containing (in mM): 126 NaCl, 1.2 KCl, 1.2 NaH2PO4, 0.01 MgCl2, 2.4 CaCl2, 18 NaHCO3 and 11 glucose saturated with 95% O2/5% CO2 at […]. […] Brain homogenates were prepared after in vivo protein transduction. Adult C57B1/6 mice were injected i.p. with vehicle or 4 mg/kg of Tat-RACK1. Four hours later, brains were immediately removed and homogenized and protein extracts were prepared as described above.
Samples ([…]) were resolved on a 10% SDS-PAGE and transferred to a nitrocellulose membrane. Membranes were probed with the appropriate antibodies and immunoreactivity was detected with enhanced chemilluminescence (Amersham Bioscience) and processed using the STORM system (Molecular Dynamic).

[7] = tested on: C57B1/6 mice or BDNF+/+ and BDNF± mice; assay: Ethanol self-administration in mice (two-bottle choice); type: in vivo, mouse; details: for ethanol consumption: wildtype mice
Experimental: Voluntary ethanol intake in singly-housed adult male C57B1/6 mice or BDNF+/+ and BDNF±mice was established by placing a bottle containing 10% ethanol in tap water (v/v) on the home cage next to an identical bottle filled with tap water for at least 1 month. Only subjects that consumed at least 40% of their total fluid volume as ethanol were included in these studies. All injections (PBS/10% glycerol vehicle, Tat-KEP27, K252a and/or Tat-RACK1) were conducted at 15:00 hours; ethanol and water intake were measured 18 hours later at 09:00 hours. Treatments were tested using a within-subjects design; subjects received one or two injections per week. Chemicals were administered in injection volumes of 1-3 ml per 100 g body weight. The effect of a deprivation period on consumption was tested by allowing mice continuous access to a bottle of 20% ethanol in tap water and a bottle of tap water on the home cage for 2 weeks. The ethanol bottle was removed for 2 weeks. Intake of 20% ethanol and of water was measured for 4 days after the ethanol was reintroduced.

CC[C@H]1C[C@H]2C[C@H]3c4[nH]c5ccc(O)cc5c4CCN(C2)[C@@H]13 [Noribogaine]
metabolite detection after ibogaine administration [1]: detected at high concentrations within 24 hours after administration

CCO [ethanol]
ethanol concentrations (as low as) that increased BDNF expression (BDNF [2]; 0.5 hours): 10 to 25 mM | expression levels of BDNF (BDNF [2]; acute ethanol, dose- and time-dependent): increased | BDNF expression (BDNF [2]; continuous ethanol 24 or 48 hours): reduced BDNF expression to below basal levels | ethanol concentration resulting in an increase in TH immunoreactivity (as low as) [3]: 10 mM | protein level of TH ([3]; ethanol 24 hours, dose-dependent): significant increase | expression of NGF (NGF): no change | RACK1 nuclear translocation [4]: translocation of RACK1 into the nucleus | expression levels of BDNF in the prefrontal cortex (PFC) (BDNF [5]): but not the prefrontal cortex | expression levels of BDNF in the striatum (BDNF [5]): significantly increased

COc1cccc(-c2cc(=O)c3ccccc3o2)c1N [PD98059]
ERK1/2 phosphorylation induced by ibogaine (ERK1/2): blocked

N#CC(=C(/N)Sc1ccccc1N)/C(C#N)=C(\N)Sc1ccccc1N [U0126]
ERK1/2 phosphorylation induced by ibogaine (ERK1/2): blocked

YGRKKRRQRRR [Tat-peptide]
ethanol intake (Long Evans rats): no effect | secretion of BDNF (BDNF [6]): no change

COC(=O)[C@@]1(O)C[C@H]2O[C@]1(C)n1c3ccccc3c3c4c(c5c6ccccc6n2c5c31)C(=O)NC4 [K252a]
Tat-RACK1-induced Trk phosphorylation (Trk receptor): reduced | reduction in ethanol intake by Tat-RACK1, co-injection with K252a ([7]; mice, Tat-RACK1 4 mg/kg + K252a): prevented the reduction in ethanol intake | ethanol consumption ([7]; K252a 5 mg/kg i.p.): increased | ethanol consumption ([7]; K252a 25 mg/kg i.p.): increased

B1: GDNF: Human glial-cell line derived neurotrophic factor (protein)
chain: SPDKQMAVLPRRERNRQAAAANPENSRGKGRRGQRGKNRGCVLTAIHLNVTDLGLGYETKEELIFRYCSGSCDAAETTYDKILKNLSRNRRLVSDKVGQACCRPIAFDDDLSFLDDNLVYHILRKHSAKRCGCI
ethanol-induced increase in TH immunoreactivity ([3]; 100 mM ethanol 24 hours, GDNF 100 ng/ml or ibogaine 10 μM added for last 12 hours): inhibited

Source: patent US20050203011A1, “Mitigating symptoms and behaviors of substance abuse by modulating GDNF or BDNF pathway activity” (The Regents of the University of California, priority 2003, published 2005)
